{"source": "patent US5830910A", "about": "(priority 1995, dated 1998)", "key": {"[1]": {"tested_on": "cultured hippocampal neurons", "test": "cells", "format": "cell-based, rat"}, "[2]": {"tested_on": "neuronal [Ca^2+]i in cultured hippocampal neurons", "test": "measurement of [Ca^2+]i, fura-2 imaging", "format": "cell-based, rat", "details": "10 μM, 3 h pretreatment; 50 μM glutamate", "text": "(§1) Dissociated embryonic rat hippocampal cell cultures were established and maintained. All procedures conformed with the NIH Guide for the Care and Use of Laboratory Animals and were approved by the University of Kentucky Animal Care and Use Committee. Cultures were maintained on a polyethyleneimine-coated substrate in plastic 35-mm dishes or 96 wall plates (for cell survival studies) or glass-bottom 35-mm dishes (for [Ca^2+ ]i imaging studies). The cell density was ^~ 70-100 cells/mm^2. Cells were maintained in Eagle's minimum essential medium supplemented 10% with fetal bovine serum and containing 20 mM sodium pyruvate. […] Aβ25-35 (Bachem, lot ZJ744) and Aβ1-40 (Bachem, lot ZK600) were stored in the lyophilized form, and stocks were prepared immediately before use by dissolving the peptide at a concentration of 1 mM in sterile distilled water. […] Glutamate and colchicine (Sigma) were prepared as 200-500x stocks in saline. Cytochalasins D and E (Sigma) and calcium ionophore 4-bromo-A23187 (Calbiochem) were prepared as 500x stocks in dimethyl sulfoxide. Vitamin E (α-tocopherol; Sigma) was prepared as a 500x stock in ethanol. Nordihydroguaiaretic acid and FeSo4 were prepared as 500x stocks in sterile water.\nFluorescence ratio imaging of the Ca^2+ indicator dye fura-2 was used to quantify [Ca^2+ ]i in neuronal somata. Cells were incubated for 30-40 min in the presence of 2 μM acetoxymethyl ester form of the [Ca^2+ ]i indicator dye fura-2 and were then washed twice (2 ml/wash) with fresh medium and allowed to incubate at least 40 min before imaging. Immediately before imaging, the normal culture medium was replaced with Hanks' balanced saline solution (GIBCO) containing 10 mM HEPES buffer and 10 mM of glucose. Cells were imaged using a Zeiss Attofluor system with a oil objective or Quantex system with a 40x oil objective. The ratio of the fluorescence emission using two different excitation wavelengths (334 and 380 nm) was used to determine [Ca^2+ ]i. The system was calibrated using solutions containing either no Ca^2+ or a saturating level of Ca^2+ (1 mM) according to the following formula: [Ca^2+ ]i =KD [(R-Rmin) / (Rmax -R)] (F0 /FS). Values represent the average [Ca^2+ ]i in the neuronal cell body. Experimental treatments were added to the bathing medium by dilution from 100-500x stocks.\n(A) Cultures were pretreated for 1 hr with 100 nM cytochalasin D and then [Ca^2+ ]i in neurons was monitored prior to and following exposure to 50 μM glutamate. The records represent the mean [Ca^2+ ]i in 8-12 neurons. Similar results were obtained in 4 separate experiments.\n(B) Aβ-induced potentiation of [Ca^2+ ]i response to glutamate is abrogated by cytochalasin D. Cultures were left untreated (Control) or were exposed to 20 μM Aβ25-35 for 6 hr or cytochalasin D plus Aβ25-35 for 6 hr. The [Ca^2+ ]i was then monitored prior to following exposure to 50 μM glutamate. Values represent the means of 8-14 neurons. Similar results were obtained in 3 separate experiments.\n(C) Cultures were pretreated for 3 hr with 50 μM Aβ alone or in combination with 100 nM cytochalasin D. The [Ca^2+ ]i in neurons was then monitored prior to and following exposure to 50 mM KCl. Values represent the mean of 14-23 neurons. Similar results were obtained in a separate experiment.\n(D) Cultures were pretreated for 1 h with 100 nM cytochalasin D. The [Ca^2+ ]i in neurons was measured immediately prior to, and at 5 min following, exposure to the indicated concentrations of glutamate. Values represent the means and SEM of determinations made in 17-26 neurons. *P<0.05 (10 μM glutamate), P<0.02 (50 μM glutamate), P<0.01 (100 μAM glutamate) compared to corresponding control values.\nFIG. 9. Cultures were pretreated for 3 h with vehicle (control) or 10 μM jasplakinolide. The [Ca^2+ ]i was monitored prior to and following exposure to 50 μM glutamate. Values represent the mean of determinations made in 10-12 neurons. Similar results were obtained in two additional experiments.\nFIG. 10. […]"}, "[3]": {"tested_on": "cultured hippocampal neurons", "test": "iron (FeSO4) neurotoxicity", "format": "cell-based, rat", "text": "as §1\n(§2) Neuronal survival was quantified by counting viable neurons in the same microscope fields (10x objective) immediately before experimental treatment and at time points after treatment. In addition, cells were grown in 96-well plates and Alamar blue fluorescence (Alamar Laboratories)was quantified by using a fluorescence plate reader. Alamar Blue is a non-fluorescent substrate that, after reduction by cell metabolites, becomes fluorescent. Usually neurons that died in the time intervals (20-48 h) between examination points were absent. Viability of the remaining neurons was assessed by morphological criteria. Neutrons with intact neurites of uniform diameter and a soma with a smooth, round appearance were considered viable, whereas neurons with fragmented neurites and a vacuolated or swollen soma were considered nonviable. Survival values were expressed as percentages of the initial number of neurons present before experimental treatment. Statistical comparisons were made using ANOVA and Scheffe post-hoc tests for pairwise comparisons.\nFIG. 8. Cultures were preincubated 1 h in the presence of 0.5% dimethylsulfoxide (control), 100 nM cytochalasin D, 50 μg/ml vitamin E (VitE), or 2 μM nordihydroguairetic acid (NDGA). Cultures were then exposed for 6 h to the indicated concentrations of FeSO4 and neuronal survival was quantified. Values represent the means and SEM of determinations made in four separate cultures. *P<0.001 compared to value for cultures exposed to 100 μM FeSO4 alone."}, "[4]": {"tested_on": "hippocampal region CA3 neurons", "test": "kainate lesion paradigm, CA3 neurons", "format": "in vivo, rat (Sprague-Dawley)", "protocol": "A kainate lesion paradigm was employed in adult rats to determine whether cytochalasin D was also excitoprotective. Twenty-four adult male Sprague-Dawley rats (250-300 g) were divided into the indicated experimental groups (4-5 rats/group). Kainate (0.5 µg/[…]) was injected stereotaxically into region CA1 of the right hippocampus of anesthetized rats. Cytochalasin D (the indicated concentration in 1 μl of saline-1% DMSO) or vehicle was infused into the right lateral ventricle during a 5-10 min period immediately following kainate injection. Rats were killed 48 hr later and perfused transcardially with 4% paraformaldehyde. Brain sections (30 μm) were stained with cresyl violet and stained neurons in three adjacent 40X microscope fields of hippocampal region CA3 were counted (5 sections/rat) . The neuronal counts were performed in sections removed approximately 200-400 μm from the injection site. This method results in highly reproducible, 75-99%, neuronal loss in the CA3 region in over 99% of the rats injected with kainate (calculations based on 302 rats receiving intra-hippocampal kainate). […] Approximately 80% of the neurons were killed by kainate in control animals receiving an intracerebroventricular infusion of saline immediately following kainate administration.\nCresyl violet-stained coronal sections from brains of rats administered kainate alone (left) of kainate plus cytochalasin D (CyD; right). […] Lower micrographs are high magnification of a region of CA3 from the sections shown in the upper panels.\nFIG. 3. Counts of viable neurons were made in region CA3 of Sham-operated rats, and rats infused intraventricularly with vehicle or increasing concentration of cytochalasin D […] unilateral kainate injection into region CA1 of the hippocampus. Neuronal survival in the kainate injected hippocampus is expressed as a percentage of neurons in the contralateral hippocampus. Values represent the mean and SEM (4 or 5 rats/group). *p<0.01 compared to value for sham rats. **p<0.01 compared to value for vehicle-infused rats. (ANOVA with Scheffe's post-hoc test)."}, "[5]": {"tested_on": "cultured hippocampal neurons", "test": "cells", "format": "cell-based, rat", "text": "as §1, §2\nFIG. 5. […] Cytochalasin D was added to cultures 30 min prior to exposure to glutamate, and control cultures were exposed to 0.2% dimethylsulfoxide.\n(A) Neuronal survival was quantified in cultures that had been pretreated with the indicated concentrations of cytochalasin D and then exposed to 50 μM glutamate for 20 h. Values represent the means and SEM of determinations made in four separate cultures. […] Pairwise statistical comparisons of cytochalasin-treated cultures with the control survival (Scheffe's test) indicated 1 nM cytochalasin D, P<0.05; 10 nM cytochalasin D, P<0.001; 100 and 1000 nM cytochalasin D, P<0.0001.\n(B) Neuronal survival was quantified in cultures that had been pretreated with either vehicle (control) or 100 nM cytochalasin D and then exposed to the indicated concentrations of glutamate for 20 h. Values represent the means and SEM of determinations made in four separate cultures. […] ANOVA with Scheffe's post hoc test.\nFIG. 6. (A) Cultures were pretreated with 100 nM cytochalasin D (CyD), 100 nM cytochalasin E (CyE), or 100 nM colchicine (Colch). Cultures were then exposed to 50 μM glutamate for 20 h. Values for neuronal survival represent the means and SEM of determinations made in four separate cultures. *P<0.001 compared to control value. **P<0.001 compared to value for cultures exposed to glutamate alone.\n[…] Values represent the means and SEM of determinations made in four separate cultures. *P<0.01 compared to value for cultures exposed to 20 μM glutamate alone. **P<0.05 compared to cultures exposed to 50 μM glutamate alone.", "remark": "listed apart in the source"}, "[6]": {"tested_on": "cultured hippocampal neurons", "test": "cells", "format": "cell-based, rat", "details": "Rattus norvegicus, Hippocampal neuron", "text": "as §1, §2\nValues represent the means and SEM of 4 separate cultures (cell counts) or 4 culture wells (Alamar blue assay). ^a p<0.05 compared to control value. ^b p<0.001 compound to control value. ^c p<0.01 compared to value for glutamate-treated cultures. ^d p<0.005 compared to value for glutamate-treated cultures. ^e p<0.001 compared to value for Aβ-treated cultures. ^f p<0.001 compared to value for cultures treated with 20 μM glutamate. ^g p<0.001 compared to cultures treated with 50 μM Aβ+20 μM glutamate. n.d. not determined."}, "[7]": {"tested_on": "cultured hippocampal neurons", "format": "cell-based, rat", "text": "as §1, §2\nFIG. 12. (A) Cultures were pretreated for 1 h with vehicle 0.2% dimethyl sulfoxide (Control) or 100 nM cytochalasin D (CyD) and were exposed to the indicated concentrations of Aβ25-35 for 48 h. Data are mean and SEM values of determinations made in four separate cultures.\n(B) Cultures were pretreated for 1 h with the indicated concentrations of cytochalasin D and then exposed to 50 μM Aβ25-35; parallel cultures were exposed to cytochalasin D alone (Control) . Data are mean and SEM values of determinations made in four separate cultures.\nFIG. 14. Cultures were exposed to 100 nM colchicine; 50 μM Aβ; 100 nM colchicine plus 50 μM Aβ; 100 nM cytochalasin E (CyE) plus Aβ (colchicine and cytochalasin E were added 1 h before Aβ); neuronal survival was assessed 48 h later. Data are mean and SEM values of determinations made in four separate cultures. *p<0.01, compared with values for control or colchicine alone. **p<0.01, compared with value for cultures exposed to Aβ alone."}, "[8]": {"details": "read-out: Neuron Survival (% of control), Alamar Blue Assay"}}, "note": "Where two headings read alike, the source gives them in different places.", "data": [{"smiles": "CC1=CC(C)CC(C)OC(=O)CC(c2ccc(O)cc2)NC(=O)C(Cc2c(Br)[nH]c3ccccc23)N(C)C(=O)C(C)NC(=O)C(C)C1", "note": "(centres unmarked) [Jasplakinolide, jasplakinolide, reference compound]", "values": [{"measurement": "effect on glutamate neurotoxicity", "setting": "[1]; preincubated 3 h, 10 μM (FIG. 6B legend: 1 h, 5 μM)", "result": "significantly potentiated"}, {"measurement": "effect on glutamate-induced elevation of [Ca^2+]i", "setting": "[2]", "result": "potentiated"}]}, {"smiles": "CC(Cc1ccc(O)c(O)c1)C(C)Cc1ccc(O)c(O)c1", "note": "(centres unmarked) [nordihydro-guaiaretic acid, Nordihydroguaiaretic acid]", "values": [{"measurement": "effect on neurotoxicity of iron", "setting": "[3]; 50 μg/ml vitamin E or 2 μM NDGA, 1 h preincubation", "result": "completely blocked"}]}, {"smiles": "C=C(C)[C@H]1CN[C@H](C(=O)O)[C@H]1CC(=O)O", "note": "[Kainate, kainate, reference compound]", "values": [{"measurement": "neurons killed by kainate", "setting": "[4]; control animals receiving i.c.v. saline, 48 hr", "result": "Approximately 80%"}, {"measurement": "neuronal loss in the CA3 region", "setting": "[4]; intrahippocampal kainate, over 99% of rats (302 rats)", "result": "75-99%"}]}, {"smiles": "O=S(=O)([O-])[O-].[Fe+2]", "note": "[FeSo4]", "values": [{"measurement": "loss of neurons", "setting": "[3]; FeSO4 10-100 nM as printed, 6 h", "result": "concentration-dependent loss of neurons"}]}, {"smiles": "N[C@@H](CCC(=O)O)C(=O)O", "note": "[Glutamate, glutamate, reference compound]", "values": [{"measurement": "viability at 100 µM", "setting": "[1]; Rattus norvegicus, Hippocampal neuron, 24 h, read-out: neuronal survival in cultures exposed to glutamate", "result": "< 20", "unit": "%"}, {"measurement": "CC50", "setting": "[5]; Rattus norvegicus, Hippocampal neuron, 20 h, read-out: ED50 for reduction in neuronal survival", "result": "~35", "unit": "µM"}, {"measurement": "cytotoxicity at 100 µM", "setting": "[5]; Rattus norvegicus, Hippocampal neuron, 20 h, read-out: maximum killing of neurons", "result": "> 80", "unit": "%"}, {"measurement": "cytotoxicity at 50 µM", "setting": "[5]; Rattus norvegicus, Hippocampal neuron, 20 h, read-out: neurons killed", "result": "> 70", "unit": "%"}, {"measurement": "viability at 20 µM", "setting": "[6]; [8]", "result": "74 ± 0.7", "unit": "%"}, {"measurement": "viability at 100 µM", "setting": "[6]; [8]", "result": "18 ± 5.4", "unit": "%"}, {"measurement": "viability at 100 µM", "setting": "[6]; read-out: Neuron Survival (% of control), Cell Counts", "result": "15 ± 3.3", "unit": "%"}]}, {"smiles": "C[C@H]1C/C=C/[C@H]2[C@@H]3O[C@]3(C)[C@@H](C)[C@H]3[C@H](Cc4ccccc4)NC(=O)[C@]32OC(=O)O/C=C/[C@@](C)(O)C1=O", "note": "[Cytochalasin E, cytochalasin E]", "values": [{"measurement": "effect on Aβ neurotoxicity", "setting": "[7]; 100 nM, added 1 h before 50 μM Aβ, 48 h", "result": "attenuated Aβ neurotoxicity significantly"}, {"measurement": "protection against toxicity of Aβ", "setting": "[7]; 10-100 nM", "result": "protected"}, {"measurement": "protection against glutamate toxicity", "setting": "[5]; 100 nM, 50 μM glutamate, 20 h", "result": "significant protection against glutamate toxicity"}, {"measurement": "protection against toxicity of glutamate", "setting": "[5]; 10-100 nM", "result": "protected"}]}]}
